Results as given in patent publication US9000028B2, “Indole and indazole compounds as an inhibitor of cellular necrosis” (LG Life Sciences Ltd., priority 2007, dated 2015).
Where two headings read alike, the source gives them in different places.

System: primary hepatocytes isolated from rats
Assay: Hepatocyte protective effect against substances deriving hepatocyte toxicity (WST-1 viability)
Assay type: cell-based
Settings: for EC50: 24-48 h
Description: Various endogenous/exogenous attacks on the cells trigger the mechanisms of cell death which is broadly classified into two types, i.e. apoptosis or necrosis. Using these cell death mechanisms, in the present experimental example, primary hepatocytes isolated from rats were treated with drugs which were clinically shown to result in serious side-effects of hepatocyte toxicity or various chemicals which derive cell death, and the compounds synthesized in the Examples were estimated for their hepatocyte protective effects, after 24-48 h. The substances used to derive hepatocyte death include CCl4, ActD, H2O2, doxorubicin, anti-Fas Ab/Actinomycin D, acetaminophen, EtOH, CdCl2, palmitate, stearate, cyclophosphamide, terfenadine, diclofenac, simvastatin, and adefovir. Primary hepatocytes were isolated using the method of Seglen PO (Experimental Cell Research 74 (1972) pp 450-454). Briefly, hepatocytes were isolated according to the two-step collagenase perfusion method, and dead cells were removed by low speed (500 rpm) centrifugation for 10 min using percoll gradient (Kreamer B L etc, In Vitro Cellular & Developmental Biology 22 (1986) pp 201-211). During this step, the viability of cells was maintained 90% or above. The cells were suspended in HepatoZYME media (Gibco BRL), and the number of cells was counted. 1.5×10^4 cells in 100 μl were placed into the collagen-coated 96-well plate (BD biocoat), and adhered on the bottom for 3-4 h.
In order to assess the hepatocyte protective effect, above adhered cells were pretreated with the Example compounds for 30 min. At this time, the concentration of the Example compounds were serially diluted by 2-fold or 3-fold over 5 steps starting from 30 uM, 10 uM or 1 uM depending on the experiments, and the final concentration of DMSO was adjusted to 0.2%. 30 min after the treatment by compounds, cells were treated by the substances deriving hepatocyte death or hepatotoxic drugs at the concentrations indicated in Table 1. After 24-48 h, the viability of cells was determined to estimate the hepatocyte protective effects. The viability of cells was determined using WST-1 (MK-400, […]) method by the absorbance at 440 nm. Hepatocyte protective effects of the Example compounds were represented by “EC50,” which was calculated from measured values. “EC50” herein means the concentration of the compound at which 50% of maximum protective effect is observed in the experiment.

[1] = Rattus norvegicus, Hepatocyte, doxorubicin, read-out: EC50, cell protective effects against doxorubicin in hepatocytes
[2] = doxorubicin, rat primary hepatocytes, read-out: EC50, cell protective effects against doxorubicin in hepatocytes

| Structure (SMILES) | EC50 [1] | other results |
| --- | --- | --- |
| Cc1cc(NC2CCCC2)c2[nH]c(-c3ccccn3)cc2c1 [Example 1, Cyclopentyl-[5-methyl-2-(pyridin-2-yl)-1H-indol-7-yl]-amine] | 100 nM |  |
| c1cc(NC2CCCC2)c2[nH]c(-c3cnccn3)cc2c1 [Example 5, Cyclopentyl-[2-(pyrazin-2-yl)-1H-indol-7-yl]-amine] | 500 nM |  |
| Cc1cc(NC2CCCC2)c2[nH]c(-c3cnccn3)cc2c1 [Example 6, Cyclopentyl-[5-methyl-2-(pyrazin-2-yl)-1H-indol-7-yl]-amine] | 300 nM |  |
| c1ccc(-c2cc3cccc(NC4CCCC4)c3[nH]2)nc1 [Example 7, Cyclopentyl-[2-(pyridin-2-yl)-1H-indol-7-yl]amine] | 500 nM |  |
| c1ccc(-c2cc3cccc(NC4CCOCC4)c3[nH]2)nc1 [Example 8, (Tetrahydropyran-4-yl)-[2-(pyridin-2-yl)-1H-indol-7-yl]-amine] | 2500 nM |  |
| c1ccc(Oc2cc(NC3CCCC3)c3[nH]c(-c4ccccn4)cc3c2)cc1 [Example 9, Cyclopentyl-[5-phenoxy-2-(pyridin-2-yl)-1H-indol-7-yl]-amine] | 200 nM |  |
| CCOc1cc(NC2CCCC2)c2[nH]c(-c3ccccn3)cc2c1 [Example 10, Cyclopentyl-[5-ethoxy-2-(pyridin-2-yl)-1H-indol-7-yl]-amine] | 200 nM |  |
| Cc1cc(NC2CCCCC2)c2[nH]c(-c3ccccn3)cc2c1 [Example 11, Cyclohexyl-[5-methyl-2-(pyridin-2-yl)-1H-indol-7-yl]-amine] | 100 nM |  |
| CC(=O)N1CCC(Nc2cc(C)cc3cc(-c4ccccn4)[nH]c23)CC1 [Example 12, 1-[4-[(5-Methyl-2-(pyridin-2-yl)-1H-indol-7-yl)-amino]piperidin-1-yl]ethanone] | 400 nM |  |
| Cc1cc(NC2CCN(C)CC2)c2[nH]c(-c3ccccn3)cc2c1 [Example 13, (1-Methylpiperidin-4-yl)-[5-methyl-2-(pyridin-2-yl)-1H-indol-7-yl]-amine] | 400 nM |  |
| Cc1cc(NC2CCN(Cc3ccccc3)C2)c2[nH]c(-c3ccccn3)cc2c1 (stereo not shown) [Example 14, (1-Benzylpyrrolidin-3-yl)[5-methyl-2-(pyridin-2-yl)-1H-indol-7-yl]-amine] | 300 nM |  |
| Cc1cc(NCC2CCCC2)c2[nH]c(-c3ccccn3)cc2c1 [Example 15, Cyclopentylmethyl-[5-methyl-2-(pyridin-2-yl)-1H-indol-7-yl]-amine] | 100 nM |  |
| Cc1cc(N(C)C)c2[nH]c(-c3ccccn3)cc2c1 [Example 17, Dimethyl-[5-methyl-2-(pyridin-2-yl)-1H-indol-7-yl]-amine] | 540 nM |  |
| Cc1cc(NC2CCCC2)c2[nH]c(-c3cccc(C)n3)cc2c1 [Example 19, Cyclopentyl-[5-methyl-2-(6-methylpyridin-2-yl)-1H-indol-7-yl]-amine] | 70 nM |  |
| Cc1cc(NC2CCC(=O)CC2)c2[nH]c(-c3ccccn3)cc2c1 [Example 20, (1-Cyclohexanon-4-yl)-[5-methyl-2-(pyridin-2-yl)-1H-indol-7-yl]-amine] | 300 nM |  |
| O=C1CCC(Nc2cc(Cl)cc3cc(-c4ccccc4)[nH]c23)CC1 [Example 21, 4-[(5-Chloro-2-phenyl-1H-indol-7-yl)amino]-cyclohexan-1-one] | 40 nM |  |
| Cc1cc(NC(=O)Nc2ccccc2)c2[nH]c(-c3ccccn3)cc2c1 [Example 24, 1-Phenyl-3-[5-methyl-2-(pyridin-2-yl)-1H-indol-7-yl]-urea] | 900 nM |  |
| Cc1cc(N(C)C2CCCC2)c2[nH]c(-c3ccccn3)cc2c1 [Example 27, Cyclopentyl-methyl-[5-methyl-2-(pyridin-2-yl)-1H-indol-7-yl]-amine] | 2400 nM |  |

| Structure (SMILES) | EC50 [1] | other results |
| --- | --- | --- |
| CCOC(=O)c1cc(NC2CCCC2)c2[nH]c(-c3ccccc3)cc2c1 [Example 28, 7-(Cyclopentyl)amino-2-phenyl-1H-indole-5-carboxylic acid ethyl ester] | 170 nM |  |
| OCc1cc(NC2CCCC2)c2[nH]c(-c3ccccc3)cc2c1 [Example 29, Cyclopentyl-[5-hydroxymethyl-2-phenyl-1H-indol-7-yl]-amine] | 70 nM |  |
| O=C(O)c1cc(NC2CCCC2)c2[nH]c(-c3ccccc3)cc2c1 [Example 30, 7-(Cyclopentyl)amino-2-phenyl-1H-indole-5-carboxylic acid] | 140 nM |  |
| CCOC(=O)Cc1cc(NC2CCCC2)c2[nH]c(-c3ccccc3)cc2c1 [Example 31, 2-[7-(Cyclopentyl)amino-2-phenyl-1H-indol-5-yl]-acetic acid ethyl ester] | 160 nM |  |
| OCCc1cc(NC2CCCC2)c2[nH]c(-c3ccccc3)cc2c1 [Example 32, 2-[7-(Cyclopentylamino)-2-phenyl-1H-indol-5-yl]ethanol] | 130 nM |  |
| O=C(O)Cc1cc(NC2CCCC2)c2[nH]c(-c3ccccc3)cc2c1 [Example 33, 2-[7-(Cyclopentyl)amino-2-phenyl-1H-indol-5-yl]acetic acid] | 150 nM |  |
| O=C(O)Cc1cc(NC2CCOCC2)c2[nH]c(-c3ccccc3)cc2c1 [Example 34, 2-[2-Phenyl-7-(tetrahydropyran-4-yl)amino-1H-indol-5-yl]-acetic acid] | > 2000 nM |  |
| O=C(O)Cc1cc(NC2CCS(=O)(=O)CC2)c2[nH]c(-c3ccccc3)cc2c1 [Example 35, 2-[2-Phenyl-7-(1,1-dioxo-tetrahydro-thiopyran-4-yl)amino-1H-indol-5-yl]-acetic acid] | 630 nM |  |
| O=S1(=O)CCN(Cc2cc(NC3CCOCC3)c3[nH]c(-c4ccccc4)cc3c2)CC1 [Example 36, (Tetrahydropyran-4-yl)[2-phenyl-5-(1,1-dioxo-thiomorpholin-4-yl)methyl-1H-indol-7-yl]amine] | 63 nM |  |
| O=C1CN(Cc2cc(NC3CCCC3)c3[nH]c(-c4cccc(F)c4)cc3c2)CCN1 [Example 38, Cyclopentyl-[2-(3-fluoro)phenyl-5-(2-oxo-piperazin-4-yl)methyl-1H-indol-7-yl]amine] |  | EC50 [2]: 110 nM |
| COc1ccc(-c2cc3cc(CN4CCS(=O)(=O)CC4)cc(NC4CCOCC4)c3[nH]2)cc1 [Example 39, (Tetrahydropyran-4-yl)-[2-(4-methoxy)phenyl-5-(1,1-dioxo-thiomorpholin-4-yl)methyl-1H-indol-7-yl]amine] |  | EC50 [2]: 330 nM |
| Cc1cc(NC2CCCC2)c2[nH]c(-c3ccccc3)c(C)c2c1 [Example 40, Cyclopentyl-[3,5-dimethyl-2-phenyl-1H-indol-7-yl]-amine] | 200 nM |  |
| Cc1cc(NC2CCOCC2)c2[nH]c(-c3ccccc3)cc2c1 [Example 41, (Tetrahydropyran-4-yl)-(5-methyl-2-phenyl-1H-indol-7-yl)-amine] | 60 nM | EC50 (Rattus norvegicus, Hepatocyte, Actinomycin D 100 ng/mL, read-out: EC50, protective effect against the substances deriving hepatotoxicity): 170 nM; EC50 (Rattus norvegicus, Hepatocyte, Anti-Fas Ab 1 ug/mL / Actinomycin D 5 ng/mL, read-out: EC50, protective effect against the substances deriving hepatotoxicity): < 600 nM; EC50 (Rattus norvegicus, Hepatocyte, CCl4 10 mM, read-out: EC50, protective effect against the substances deriving hepatotoxicity): 800 nM; EC50 (Rattus norvegicus, Hepatocyte, CdCl2 1 uM, read-out: EC50, protective effect against the substances deriving hepatotoxicity): 1900 nM; EC50 (Rattus norvegicus, Hepatocyte, Cyclophosphamide 3 mM, read-out: EC50, protective effect against the substances deriving hepatotoxicity): < 200 nM; EC50 (Rattus norvegicus, Hepatocyte, Doxorubicin 5 uM, read-out: EC50, protective effect against the substances deriving hepatotoxicity): 60 nM; EC50 (Rattus norvegicus, Hepatocyte, EtOH 2.5%, read-out: EC50, protective effect against the substances deriving hepatotoxicity): 9000 nM; EC50 (Rattus norvegicus, Hepatocyte, H2O2 10 mM, read-out: EC50, protective effect against the substances deriving hepatotoxicity): 800 nM; EC50 (Rattus norvegicus, Hepatocyte, Palmitic acid 700 uM, read-out: EC50, protective effect against the substances deriving hepatotoxicity): < 600 nM; EC50 (Rattus norvegicus, Hepatocyte, Stearic acid 700 uM, read-out: EC50, protective effect against the substances deriving hepatotoxicity): < 600 nM; viability at 3-100 uM (Tacrine 0.5 mM, compound at 3-100 uM, rat primary hepatocytes): 50% |
| Cc1cc(NCC2CCCC2)c2[nH]c(-c3ccccc3)cc2c1 [Example 42, Cyclopentylmethyl-(5-methyl-2-phenyl-1H-indol-7-yl)-amine] | 40 nM |  |
| Cc1cc(NC2CCN(C)CC2)c2[nH]c(-c3ccccc3)cc2c1 [Example 44, (1-Methylpiperidin-4-yl)-(5-methyl-2-phenyl-1H-indol-7-yl)-amine] | 170 nM |  |
| CC(=O)N1CCC(Nc2cc(C)cc3cc(-c4ccccc4)[nH]c23)CC1 [Example 45, 1-[-4-[(5-Methyl-2-phenyl-1H-indol-7-yl)amino]piperidin-1-yl]ethanone] | 210 nM |  |
| Clc1cc(NC2CCCC2)c2[nH]c(-c3ccccc3)cc2c1 [Example 46, Cyclopentyl-(5-chloro-2-phenyl-1H-indol-7-yl)-amine] | 50 nM |  |
